Measured values reported in US20130303535A1, “NOVEL BICYCLIC HETEROCYCLIC COMPOUND” (priority 2008, published 2013).
Where a name gives a salt, the structure may show the parent alone.

What follows are compounds tested against TTX resistant Na channel of human SNS-expressing cell (SNS) (Homo sapiens, UniProt Q9Y5Y9) (assay: cell-based). Conditions: CHO-K1, compound concentration 12.5 μM; read-out: SNS inhibitory rate (%).
Sequence of TTX resistant Na channel of human SNS-expressing cell (SNS) (Q9Y5Y9 whole entry, looked up): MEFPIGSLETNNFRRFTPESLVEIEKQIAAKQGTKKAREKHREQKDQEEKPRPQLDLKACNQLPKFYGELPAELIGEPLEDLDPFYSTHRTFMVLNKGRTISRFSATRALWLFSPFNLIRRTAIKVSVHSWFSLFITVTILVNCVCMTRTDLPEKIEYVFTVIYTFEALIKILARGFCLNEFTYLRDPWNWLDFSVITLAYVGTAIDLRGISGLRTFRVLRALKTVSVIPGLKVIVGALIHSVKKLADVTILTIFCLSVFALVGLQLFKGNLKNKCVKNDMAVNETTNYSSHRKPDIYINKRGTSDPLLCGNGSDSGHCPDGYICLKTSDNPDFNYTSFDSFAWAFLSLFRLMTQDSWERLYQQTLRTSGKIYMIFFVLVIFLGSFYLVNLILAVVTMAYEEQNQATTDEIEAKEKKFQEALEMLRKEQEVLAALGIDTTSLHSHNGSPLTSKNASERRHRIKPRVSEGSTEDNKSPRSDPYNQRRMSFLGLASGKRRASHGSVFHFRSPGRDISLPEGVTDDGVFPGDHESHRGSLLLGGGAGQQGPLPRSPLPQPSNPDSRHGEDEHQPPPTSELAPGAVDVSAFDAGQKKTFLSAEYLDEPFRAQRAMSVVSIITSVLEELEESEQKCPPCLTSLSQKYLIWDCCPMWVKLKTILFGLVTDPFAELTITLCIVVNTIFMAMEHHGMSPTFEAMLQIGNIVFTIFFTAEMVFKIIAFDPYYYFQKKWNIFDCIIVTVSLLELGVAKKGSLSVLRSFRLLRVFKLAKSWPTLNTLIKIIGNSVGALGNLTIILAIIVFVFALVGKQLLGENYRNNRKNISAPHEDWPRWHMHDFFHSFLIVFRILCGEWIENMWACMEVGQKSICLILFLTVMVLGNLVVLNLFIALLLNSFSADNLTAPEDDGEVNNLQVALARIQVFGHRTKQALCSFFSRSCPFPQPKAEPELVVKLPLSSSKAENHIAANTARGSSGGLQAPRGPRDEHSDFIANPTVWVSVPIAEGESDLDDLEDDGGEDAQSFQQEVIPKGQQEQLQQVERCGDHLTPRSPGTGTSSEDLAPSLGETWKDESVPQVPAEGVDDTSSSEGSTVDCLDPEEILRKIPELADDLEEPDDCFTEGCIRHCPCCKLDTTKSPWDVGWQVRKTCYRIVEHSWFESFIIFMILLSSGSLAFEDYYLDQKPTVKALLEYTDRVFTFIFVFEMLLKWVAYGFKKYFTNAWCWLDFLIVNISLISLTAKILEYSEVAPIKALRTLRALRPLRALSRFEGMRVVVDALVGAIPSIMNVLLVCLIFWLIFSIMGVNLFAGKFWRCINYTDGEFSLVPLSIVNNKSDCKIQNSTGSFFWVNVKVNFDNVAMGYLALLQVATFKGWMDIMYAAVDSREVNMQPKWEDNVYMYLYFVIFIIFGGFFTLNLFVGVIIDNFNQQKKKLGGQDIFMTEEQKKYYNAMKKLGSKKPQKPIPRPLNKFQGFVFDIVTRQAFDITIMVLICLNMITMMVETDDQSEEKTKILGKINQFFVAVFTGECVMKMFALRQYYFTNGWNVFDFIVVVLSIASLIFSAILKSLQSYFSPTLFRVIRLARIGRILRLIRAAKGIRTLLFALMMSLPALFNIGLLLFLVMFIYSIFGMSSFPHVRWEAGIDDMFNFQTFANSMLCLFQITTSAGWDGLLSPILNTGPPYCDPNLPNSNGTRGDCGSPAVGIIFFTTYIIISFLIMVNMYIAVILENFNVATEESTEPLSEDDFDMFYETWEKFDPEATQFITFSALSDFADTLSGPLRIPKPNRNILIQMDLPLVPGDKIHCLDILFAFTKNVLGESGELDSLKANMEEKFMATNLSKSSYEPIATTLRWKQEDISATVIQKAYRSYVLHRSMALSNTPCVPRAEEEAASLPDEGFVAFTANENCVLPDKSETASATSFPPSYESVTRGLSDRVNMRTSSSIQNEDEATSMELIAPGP

Compared with `CCOCCn1c(CN[C@H](C)C(N)=O)nc2ccc(Oc3ccc(F)cc3)cc21` [Example 54], `CCOCCn1c(CN[C@@H](C)C(N)=O)nc2ccc(Oc3ccc(F)cc3)cc21` [Example 59, N^2-{[1-(2-ethoxyethyl)-6-(4-fluorophenoxy)-1H-benzimidazol-2-yl]methyl}-L-alaninamide] is lower in inhibition at 12.5 µM: 95.7% for the first, 54.8% for the second.

Going from `CC(=O)N1CCC(n2c(CN[C@@H](C)C(N)=O)nc3ccc(Oc4ccc(F)cc4)cc32)CC1` [Example 85, N^2-{[1-(1-acetylpiperidin-4-yl)-6-(4-fluorophenoxy)-1H-benzimidazol-2-yl]methyl}-L-alaninamide] to `C[C@H](NCc1nc2ccc(Oc3ccc(F)cc3)cc2n1C1CCN(S(C)(=O)=O)CC1)C(N)=O` [Example 86, N^2-({6-(4-fluorophenoxy)-1-[1-(methylsulfonyl)piperidin-4-yl]-1H-benzimidazol-2-yl}methyl)-L-alaninamide], the inhibition at 12.5 µM falls from 24.9% to 8.3%.

Compared with `CCOCCn1c(CN[C@@H](C)C(N)=O)nc2cc(Cl)c(Oc3ccc(F)cc3)cc21` [Example 118, N^2-{[5-chloro-1-(2-ethoxyethyl)-6-(4-fluorophenoxy)-1H-benzimidazol-2-yl]methyl}-L-alaninamide], `CCOCCn1c(CN[C@@H](C)C(N)=O)nc2ccc(Oc3ccc(F)c(F)c3)cc21` [Example 48] is higher in inhibition at 12.5 µM: 64.5% for the first, 96.7% for the second.

Going from `CCOCCn1c(CNCC(N)=O)nc2ccc(-c3ccc(Cl)cc3)cc21` [Example 72] to `CCOCCn1c(CN[C@@H](C)C(N)=O)nc2ccc(-c3ccc(Cl)cc3)cc21` [Example 73], the inhibition at 12.5 µM rises from 7.3% to 8%.

First: CCOCCn1c(CNC(C)(C)C(N)=O)nc2ccc(-c3ccc(F)c(C)c3)cc21 [Example 168]
Second: CCOCCn1c(CNC(C)(C)C(N)=O)nc2ccc(-c3ccc(C)c(F)c3)cc21 [Example 170]
The inhibition at 12.5 µM of the first is higher: 20.2% for the first, 14.2% for the second.

Going from `CCOCCn1c(CN[C@@H](C)C(N)=O)nc2ccc(-c3ccc(F)cc3)cc21` [Example 68] to `CCOCCn1c(CN[C@@H](C)C(N)=O)nc2ccc(-c3ccc(C)cc3)cc21` [Example 144], the inhibition at 12.5 µM falls from 16% to 6.1%.

Going from `NC(=O)CNCc1nc2ccc(Oc3ccccc3)cc2n1CC1CCOCC1` [Example 14] to `NC(=O)CNCc1nc2ccc(Oc3ccccc3)cc2n1C1CCCC1` [Example 25], the inhibition at 12.5 µM falls from 16.4% to 0%.

First: CCOCCn1c(CN[C@@H](C)C(N)=O)nc2ccc(Oc3ccc(C(C)(C)C)cc3)cc21 [Example 74, N^2-{[6-(4-tert-butylphenoxy)-1-(2-ethoxyethyl)-1H-benzimidazol-2-yl]methyl}-L-alaninamide]
Second: CCOCCn1c(CN[C@H](C)C(N)=O)nc2ccc(Oc3ccccc3)cc21 [Example 36]
The inhibition at 12.5 µM of the first is higher: 58.2% for the first, 0.4% for the second.

Compared with `CCOCCn1c(CN[C@@H](C)C(N)=O)nc2cc(F)c(-c3ccc(C)cc3)cc21` [Example 184], `CCOCCn1c(CN[C@@H](C)C(N)=O)nc2cc(Cl)c(-c3ccc(C)cc3)cc21` [Example 178] is lower in inhibition at 12.5 µM: 87.9% for the first, 16% for the second.

First: CCOCCn1c(CN[C@@H](CC)C(N)=O)nc2ccc(-c3ccc(F)cc3)cc21 [Example 150]
Second: CCOCCn1c(CNC(C)(C)C(N)=O)nc2ccc(-c3ccc(F)cc3)cc21 [Example 149]
The inhibition at 12.5 µM of the first is higher: 45.6% for the first, 30.6% for the second.

Compared with `CCOCCn1c(CNCC(N)=O)nc2ccc(Oc3ccccc3)cc21` [Example 2, N^2-{[1-(2-ethoxyethyl)-6-phenoxy-1H-benzimidazol-2-yl]methyl}glycinamide], `CCOCCn1c(CNC(C)(C)C(N)=O)nc2ccc(Oc3ccccc3)cc21` [Example 39] is higher in inhibition at 12.5 µM: 8.4% for the first, 48.8% for the second.

Going from `CCOCCn1c(CNC(C)(C)C(N)=O)nc2ccc(-c3ccc(F)cc3OC)cc21` [Example 174] to `CCOCCn1c(CNC(C)(C)C(N)=O)nc2ccc(-c3ccc(C)c(C)c3)cc21` [Example 162], the inhibition at 12.5 µM rises from 33.4% to 67.3%.

Going from `CCOCCn1c(CN[C@@H](C)C(N)=O)nc2ccc(-c3cccc(C)c3)cc21` [Example 152] to `CCOCCn1c(CN[C@@H](C)C(N)=O)nc2ccc(-c3ccc(F)c(C)c3)cc21` [Example 167], the inhibition at 12.5 µM rises from 8.9% to 82.8%.

First: CCOCCn1c(CNCC(N)=O)nc2ccc(Oc3ccc(Cl)cc3)cc21 [Example 28]
Second: CCOCCn1c(CNCC(N)=O)nc2ccc(Oc3ccc(F)cc3)cc21 [Example 3, N^2-{[1-(2-ethoxyethyl)-6-(4-fluorophenoxy)-1H-benzimidazol-2-yl]methyl}glycinamide]
The inhibition at 12.5 µM of the first is higher: 27.4% for the first, 12.9% for the second.

First: CCOCCn1c(CN(C)CC(N)=O)nc2ccc(Oc3ccccc3)cc21 [Example 40]
Second: COCCCn1c(CN[C@@H](C)C(N)=O)nc2ccc(Oc3ccccc3)cc21 [Example 24]
The inhibition at 12.5 µM of the first is higher: 95.8% for the first, 5.8% for the second.

Going from `C[C@H](NCc1nc2ccc(Oc3ccccc3)cc2n1C[C@@H]1CCCO1)C(N)=O` [Example 22] to `C[C@H](NCc1nc2ccc(Oc3ccc(F)cc3)cc2n1C[C@@H]1CCCO1)C(N)=O` [Example 56], the inhibition at 12.5 µM rises from 16.4% to 82.2%.

Compared with `CC(C)(NCc1nc2ccc(Oc3ccc(F)cc3F)cc2n1C[C@@H]1CCCO1)C(N)=O` [Example 137], `C[C@H](NCc1nc2ccc(Oc3ccc(F)cc3F)cc2n1C[C@H]1CCCO1)C(N)=O` [Example 125] is higher in inhibition at 12.5 µM: 90.7% for the first, 95.9% for the second.

First: CCOCCn1c(CN[C@@H](C)C(N)=O)nc2ccc(-c3ccc(F)c(F)c3)cc21 [Example 148]
Second: CCOCCn1c(CN[C@@H](C)C(N)=O)nc2ccc(-c3ccc(F)c(OC)c3)cc21 [Example 173]
The inhibition at 12.5 µM of the first is lower: 17% for the first, 27.1% for the second.

First: C[C@H](NCc1nc2cc(F)c(-c3ccc(F)cc3)cc2n1C1CCOCC1)C(N)=O [Example 116, N^2-{[5-fluoro-6-(4-fluorophenyl)-1-(tetrahydro-2H-pyran-4-yl)-1H-benzimidazol-2-yl]methyl}-L-alaninamide]
Second: C[C@H](NCc1nc2ccc(Oc3ccc(F)cc3F)cc2n1C1CC1)C(N)=O [Example 99]
The inhibition at 12.5 µM of the first is lower: 33.2% for the first, 65.4% for the second.

Going from `CCn1c(CN[C@@H](C)C(N)=O)nc2ccc(-c3ccc(F)cc3)cc21` [Example 110, N^2-{[1-ethyl-6-(4-fluorophenyl)-1H-benzimidazol-2-yl]methyl}-L-alaninamide] to `C[C@H](NCc1nc2ccc(Oc3ccc(F)cc3)cc2n1CCO)C(N)=O` [Example 117, N^2-{[6-(4-fluorophenoxy)-1-(2-hydroxyethyl)-1H-benzimidazol-2-yl]methyl}-L-alaninamide], the inhibition at 12.5 µM rises from 9.8% to 78.8%.

First: COCCCn1c(CN[C@@H](C)C(N)=O)nc2ccc(Oc3ccc(C)cc3)cc21 [Example 126]
Second: COCCCn1c(CN[C@@H](C)C(N)=O)nc2ccc(Oc3ccc(F)cc3)cc21 [Example 64]
The inhibition at 12.5 µM of the first is lower: 56.9% for the first, 82.7% for the second.

First: CC(C)(NCc1nc2ccc(Oc3ccc(F)cc3)cc2n1C1CCOCC1)C(N)=O [Example 8]
Second: CC(C)(NCc1nc2ccc(Oc3ccccc3)cc2n1C1CCC1)C(N)=O [Example 33]
The inhibition at 12.5 µM of the first is higher: 90.4% for the first, 32.9% for the second.

Compared with `CCOCCn1c(CN[C@@H](C)C(N)=O)nc2cc(C(F)(F)F)c(-c3ccc(F)cc3)cc21` [Example 115, N^2-{[1-(2-ethoxyethyl)-6-(4-fluorophenyl)-5-(trifluoromethyl)-1H-benzimidazol-2-yl]methyl}-L-alaninamide], `CCOCCn1c(CN[C@@H](C)C(N)=O)nc2cc(Cl)c(-c3ccc(OC(F)(F)F)cc3)cc21` [Example 181] is lower in inhibition at 12.5 µM: 3.5% for the first, 0% for the second.

First: COCCCn1c(CN[C@@H](C)C(N)=O)nc2ccc(Oc3ccc(F)c(F)c3)cc21 [Example 122]
Second: CCn1c(CN[C@@H](C)C(N)=O)nc2ccc(Oc3ccc(F)c(F)c3)cc21 [Example 97]
The inhibition at 12.5 µM of the first is higher: 100% for the first, 82.4% for the second.

First: CCn1c(CNC(C)(C)C(N)=O)nc2cc(F)c(-c3ccc(F)cc3)cc21 [Example 187]
Second: CC(C)(NCc1nc2ccc(Oc3ccc(F)cc3)cc2n1CCO)C(N)=O [Example 143]
The inhibition at 12.5 µM of the first is higher: 53.3% for the first, 27.7% for the second.

Compared with `CCOCCn1c(CNC(C)(C)C(N)=O)nc2ccc(Oc3ccc(F)c(F)c3)cc21` [Example 141], `CCOCCn1c(CN[C@@H](C)C(N)=O)nc2ccc(Oc3cc(F)cc(F)c3F)cc21` [Example 57] is lower in inhibition at 12.5 µM: 90.3% for the first, 87.6% for the second.

Compared with `CCOCCn1c(CN[C@@H](C)C(N)=O)nc2ccc(-c3ccc(C)cc3)nc21` [Example 209, N^2-{[3-(2-ethoxyethyl)-5-(4-methylphenyl)-3H-imidazo[4,5-b]pyridin-2-yl]methyl}-L-alaninamide hydrochloride], `CCOCCn1c(CN[C@@H](C)C(N)=O)nc2ccc(-c3ccc(C)cc3C)cc21` [Example 159] is higher in inhibition at 12.5 µM: 6.5% for the first, 96.1% for the second.

Going from `CCOCCn1c(CN[C@@H](C)C(N)=O)nc2cc(Cl)c(-c3ccccc3)cc21` [Example 177] to `CCOCCn1c(CN[C@@H](C)C(N)=O)nc2ccc(-c3ccccc3)cc21` [Example 69], the inhibition at 12.5 µM falls from 22.5% to 22.3%.

Compared with `CCOCCn1c(CN[C@@H](C)C(N)=O)nc2cc(C)c(-c3ccc(F)c(F)c3)cc21` [Example 190], `CCOCCn1c(CN[C@@H](C)C(N)=O)nc2cc(F)c(-c3ccc(Cl)cc3)cc21` [Example 186] is higher in inhibition at 12.5 µM: 34.3% for the first, 55.6% for the second.

Compared with `CCOCCn1c(CNCC(N)=O)nc2ccc(-c3ccccc3Cl)cc21` [Example 70], `CCOCCn1c(CN[C@@H](C)C(N)=O)nc2ccc(-c3ccc(C)cc3F)cc21` [Example 165] is higher in inhibition at 12.5 µM: 11.2% for the first, 100% for the second.

Going from `CCOCCn1c(CN[C@@H](C)C(=O)NCCN2CCOCC2)nc2ccc(Oc3ccc(F)cc3)cc21` [Example 89] to `CCOCCn1c(CN[C@@H](C)C(=O)N2CCNC(=O)C2)nc2ccc(Oc3ccc(F)cc3)cc21` [Example 106], the inhibition at 12.5 µM rises from 83% to 86.4%.

Compared with `CCOCCn1c(CN[C@@H](C)C(N)=O)nc2ccc(-c3ccc(OC(F)(F)F)cc3)cc21` [Example 145], `CCOCCn1c(CN[C@@H](C)C(N)=O)nc2ccc(-c3ccc(F)cc3C)cc21` [Example 157] is higher in inhibition at 12.5 µM: 1.3% for the first, 89.9% for the second.

Compound `C[C@H](NCc1nc2ccc(Oc3ccc(F)cc3)cc2n1CC(C)(C)O)C(N)=O` [Example 50] has an inhibition at 12.5 µM of 86.8%.
